# Laboratory results published in patent US6660910B1, “Selection marker” (Syngenta Mogen B.V., priority 1997, dated 2003).
# Legend:
# Type in all cases: cell-based
# [1] = system: callus derived from scutellum of mature embryos of Oryza sativa cv. Taipei 309; experiment: Rice callus transformation (Agrobacterium) with cyanamide selection; conditions: for Calli able to regenerate: 15 mg/l cyanamide
# Protocol: Described below is the method used for transformation of callus derived from scutellum of mature embryos of Oryza sativa cv. Taipei 309 using Agrobacterium tumefaciens strain LBA1119-pMOG1295 (harboring the cah-gene) and strain LBA1119-pMOG1253 (control). Sterile dehusked rice seeds were germinated on plates containing Callus Induction Medium (CIM) in the dark at 28° C. (The contents of various media can be found in Table 5). After 3 weeks embryogenic callus derived from the scutellum is isolated and subcultured on the same medium under the same conditions. After 2-3 weeks embryogenic calli were cut in segments of approximately 2-3 mm and cultured plates containing CIM for 4 days. The Agrobacterium strains used in this study harbored a rifampicin selection marker in a C 58 chromosomal background. The construction of the helper strain EHA105 is described by Hood et al. (1993). Agrobacteria were grown for 4 days on plates containing AB medium with antibiotics (rifampicin 20 mg/l, kanamycin 100 mg/l ). Agrobacteria were collected in LIM and the OD600 was adjusted till 1.0-1.5. This suspension was used for cocultivation. Calli were incubated for 10 minutes with the Agrobacterium suspension and dried on sterile filter paper to remove excess of bacteria. Calli were cultured for 48 h on Coculture Medium (COM) plates at 25° C. in the dark. 50 pMOG1295 calli and 20 pMOG1253 calli were cultured per concentration of cyanamid. The following concentrations of cyanamide were used: 0, 15, 30, 60, 100, 150, 200, 300 and 500 mg/l. Hygromycin was applied in a concentration of 50 mg/l. Calli were incubated on First Selection Medium (FSM) plates containing several concentrations of cyanamide or hygromycin at 28° C. in the dark. After 3 weeks the calli were transferred to Embryo Induction Medium I (EIM I) containing the same concentration of cyanamide or hygromycin . After another 3 weeks the calli were subcultured on Embryo Induction Medium II (EIM II) containing the same concentration of cyanamide or an increased concentration of hygromycin (75 mg/l). Calli were transferred to Shoot Induction Medium (SIM) containing the same concentration of cyanamide as during FSM, EIM I, EIM II and were cultured under 12 hours light period (2600 LUX) and 12 hours dark at 28 ° C. Approximately 3 weeks after transferring calli to SIM, shoots were regenerating and excised and placed in jars containing Pre-Greenhouse Medium (PGM). […] At 15 mg/l cyanamide the regeneration frequency of callus from both constructs was the same (pMOG1253 7 out of 16 calli were able to regenerate, pMOG1295 17 out of 44).
# BMS cells = experiment: Maize killing curve; conditions: for Observations (light microscope) / % dead cells (light microscope): Day 15; for % dead cells (light microscope): clumps of cells
# Protocol: Stock solutions of cyanamide were prepared in water at 10 and 100 mg/ml and filter sterilised. Aliquots were stored at −20° C. Media were prepared by adding MS medium (4.4 g), sucrose (20 g), 2,4-D (2.0 mg) and agar (8 g) to 1 litre of water. […] BMS liquid was prepared as above minus agar. BMS cells were added to media containing cyanamide in three ways:
# a. BMS cell suspension added to falcon tube and liquid removed. Then the BMS cells were arranged on the surface of the agar in clumps of approximately 5 mm in diameter, 5 clumps per plate, 3 plates per concentration, while on the base of each petri dish the outline of each clump was marked;
# b. Approximately 0.5 ml pack cell volume plus 1.5 ml BMS liquid added to surface of agar and the cells were spread finely over surface of agar. Three plates per treatment were set up.
# c. Approximately 0.5 ml pack cell volume plus 1.5 ml BMS liquid were added to filter paper overlying agar. Cells were spread evenly over surface of filter. One plate per treatment was set up.
# The plates were sealed with micropore tape and incubated at 25° C. in the dark. […]
# Samples were taken from the clumps of cells on all levels of cyanamide for observation under a light microscope. With increasing levels of cyanamide there were increasing numbers of dead cells where the cell contents had shrunk away from the cell wall, and an increase in the number of dark bodied starch grains. Cells were observed resuspended in water and with FDA stain under UV light.
# [2] = system: root segments of Arabidopsis thaliana cv. C24; experiment: Arabidopsis root transformation with selection on cyanamide or kanamycin; conditions: pMOG 1156; treatment kanamycin 50 mg/litre; column headed same conc. as treatment in rooting medium
# [3] = pMOG1295, 30 mg/l cyanamide, 50 calli cultured
smiles,measurement,setting,value
N#CN [Cyanamide],Callus formation,"[1]; cyanamide 100 mg/l or higher, pMOG1295 and pMOG1253 calli",No calli were formed
same,Calli able to regenerate,[1]; pMOG1253 (control),7 out of 16
same,Calli able to regenerate,[1]; pMOG1295 (cah-gene),17 out of 44
same,Calli able to be regenerated,[1]; [3],6
same,Calli showing green callus development,[1]; [3],11
same,Observations (light microscope),BMS cells; 10 mg/l,Signs of stress.
same,% dead cells (light microscope),BMS cells; 10 mg/l,Approx 5% dead.
same,Growth of BMS cells,"BMS cells; 10 mg/l, after 15 days",reduction in growth of BMS cells on 10 mg/l was still very clear
same,Observations (light microscope),BMS cells; 30 mg/l,Striking differences from control cells.
same,% dead cells (light microscope),BMS cells; 30 mg/l,Approx 15-20% dead.
same,Growth of BMS cells,"BMS cells; 50 mg/l plus, after 15 days",showed no signs of growth
same,Observations (light microscope),BMS cells; 50 mg/l,Increasing number of dead cells and accumulation of starch
same,% dead cells (light microscope),BMS cells; 50 mg/l,Approx 50% dead.
same,Observations (light microscope),BMS cells; 100 mg/l,Majority of cell dead.
same,% dead cells (light microscope),BMS cells; 100 mg/l,Approx 90% dead.
same,Observations (light microscope),BMS cells; 150 mg/l,Majority of cells dead.
same,% dead cells (light microscope),BMS cells; 150 mg/l,Approx 95-98% dead.
same,Colour of BMS cells,"BMS cells; all levels of cyanamide, after 8 days",no browning of cells was observed
same,Growth of BMS cells,"BMS cells; cells spread over surface of media, 10 mg/l, after 8 days",significant reduction in growth
same,Cell density of BMS cells,"BMS cells; cells spread over surface of media, 30 mg/l, after 8 days",slight increase in cell density
same,Growth of BMS cells,"BMS cells; clumps and cells spread over agar, 30 mg/l plus, after 15 days",notable reduction in growth
same,Growth of BMS cell clumps,"BMS cells; clumps on agar, 10 mg/l, after 8 days",had not outgrown their outline but the height of the clumps had increased
same,Cyanamide concentration with maximum effect on growth,"BMS cells; clumps on agar, after 8 days",50 mg/L
same,Growth of BMS cell clumps,"BMS cells; repeated experiment, 10 mg/l",slight reduction in growth
same,Colour of BMS cell clumps,"BMS cells; repeated experiment, above 50 mg/l",slight orange tinge
same,Growth of BMS cells,"BMS cells; repeated experiment, cells spread over agar or on filters, 10 mg/l",slight growth (approximately doubling of the number of original cells)
same,Growth of BMS cells,"BMS cells; repeated experiment, cells spread over agar or on filters, 20 mg/l and higher",limited of growth
same,Growth of BMS cell clumps,"BMS cells; repeated experiment, from 20 mg/l on",showed no outgrowing from their original outline
NC[C@H]1O[C@H](O[C@H]2[C@H](O)[C@@H](O[C@H]3O[C@H](CO)[C@@H](O)[C@H](N)[C@H]3O)[C@H](N)C[C@@H]2N)[C@H](O)[C@@H](O)[C@@H]1O [Kanamycin],Percentage of GUS expressing plants (% of plants staining blue),[2],100%
